Data as given in PubChem BioAssay AID248 (DTP/NCI, 2004).
Where “and” joins values, the source holds several entries; their conditions need not be identical. Equal values may be shown once. Toxic doses and inconclusive results are not listed. Cut-off read from the data, not from the text of the source: active = T/C of 150% or more; inactive = T/C below 125%.

System: L1210 leukemia ip in BDF1 mice, survival T/C
Test: NCI In Vivo Anticancer Drug Screen. Data for tumor model L1210 Leukemia (intraperitoneal) in B6D2F1 (BDF1) mice
Settings: endpoint: mean survival time, higher = longer survival
In short: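 Ratio derived from survival: compound-dosed mice over vehicle-dosed mice, all bearing a transplantable tumor.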

[1] = dose: 50.0 mg/kg/injection, schedule: Q01DX001 (ip), vehicle: Klucel (hydroxypropylcellulose) (HPC)
[2] = dose: 100.0 mg/kg/injection, schedule: Q01DX001 (ip), vehicle: Klucel (hydroxypropylcellulose) (HPC)
[3] = dose: 200.0 mg/kg/injection, schedule: Q01DX001 (ip), vehicle: Klucel (hydroxypropylcellulose) (HPC)
[4] = dose: 100.0 mg/kg/injection, schedule: Q01DX001 (ip), vehicle: saline with Tween-80
[5] = dose: 200.0 mg/kg/injection, schedule: Q01DX001 (ip), vehicle: saline with Tween-80
[6] = dose: 400.0 mg/kg/injection, schedule: Q01DX001 (ip), vehicle: saline with Tween-80
[7] = dose: 100.0 mg/kg/injection, schedule: Q04DX003 (ip), vehicle: Klucel (hydroxypropylcellulose) (HPC)
[8] = dose: 200.0 mg/kg/injection, schedule: Q04DX003 (ip), vehicle: Klucel (hydroxypropylcellulose) (HPC)
[9] = dose: 400.0 mg/kg/injection, schedule: Q01DX001 (ip), vehicle: Klucel (hydroxypropylcellulose) (HPC)
[10] = dose: 400.0 mg/kg/injection, schedule: Q04DX003 (ip), vehicle: Klucel (hydroxypropylcellulose) (HPC)
[11] = dose: 100.0 mg/kg/injection, schedule: Q04DX002 (ip), vehicle: Klucel (hydroxypropylcellulose) (HPC)
[12] = dose: 200.0 mg/kg/injection, schedule: Q04DX002 (ip), vehicle: Klucel (hydroxypropylcellulose) (HPC)
[13] = dose: 100.0 mg/kg/injection, schedule: Q01DX009 (ip), vehicle: Klucel (hydroxypropylcellulose) (HPC)
[14] = dose: 100.0 mg/kg/injection, schedule: Q04DX003 (ip), vehicle: saline
[15] = dose: 200.0 mg/kg/injection, schedule: Q01DX009 (ip), vehicle: Klucel (hydroxypropylcellulose) (HPC)
[16] = dose: 400.0 mg/kg/injection, schedule: Q01DX009 (ip), vehicle: Klucel (hydroxypropylcellulose) (HPC)

Measured: T/C

CC(=O)Nc1[nH]ncc1C(N)=O
inactive: [1] 100 % of control | [2] 100 % of control | [3] 98 % of control

CN(C)C1c2cc(Cl)ccc2-c2c(Cl)cc(Cl)cc21 (configuration not stated)
inactive: dose: 50.0 mg/kg/injection, schedule: Q01DX001 (ip), vehicle: carboxymethylcellulose (CMC) 100 % of control | dose: 100.0 mg/kg/injection, schedule: Q01DX001 (ip), vehicle: carboxymethylcellulose (CMC) 102 % of control | dose: 200.0 mg/kg/injection, schedule: Q01DX001 (ip), vehicle: carboxymethylcellulose (CMC) 100 % of control | dose: 400.0 mg/kg/injection, schedule: Q01DX001 (ip), vehicle: carboxymethylcellulose (CMC) 105 % of control

CCCCCCCCCCCCN1CCCN(CCCCCCCCCCCC)CC1
inactive: [4] 100 % of control | dose: 100.0 mg/kg/injection, schedule: Q04DX002 (ip), vehicle: saline with Tween-80 97 % of control and 106 % of control | dose: 100.0 mg/kg/injection, schedule: Q04DX003 (ip), vehicle: saline with Tween-80 94 % of control and 90 % of control | [5] 98 % of control | dose: 200.0 mg/kg/injection, schedule: Q04DX002 (ip), vehicle: saline with Tween-80 97 % of control and 106 % of control | dose: 200.0 mg/kg/injection, schedule: Q04DX003 (ip), vehicle: saline with Tween-80 103 % of control and 87 % of control | [6] 107 % of control | dose: 400.0 mg/kg/injection, schedule: Q04DX002 (ip), vehicle: saline with Tween-80 101 % of control and 92 % of control | dose: 400.0 mg/kg/injection, schedule: Q04DX003 (ip), vehicle: saline with Tween-80 90 % of control

CCC(C(=O)c1ccccc1)C(O)(C(F)(F)F)C(F)(F)F (configuration not stated)
inactive: [2] 96 % of control | [7] 94 % of control | [3] 106 % of control | [8] 104 % of control | [9] 95 % of control | [10] 104 % of control

CCOC(=O)c1cccnc1NC(=O)c1ccccc1
inactive: dose: 50.0 mg/kg/injection, schedule: Q04DX002 (ip), vehicle: Klucel (hydroxypropylcellulose) (HPC) 97 % of control | [11] 97 % of control and 103 % of control | [12] 100 % of control and 101 % of control | dose: 800.0 mg/kg/injection, schedule: Q04DX002 (ip), vehicle: Klucel (hydroxypropylcellulose) (HPC) 105 % of control

C[C@]12C=CC(=O)C=C1CC[C@@H]1[C@@H]2[C@@H](O)C[C@@]2(C)[C@H]1CC[C@]2(O)C(=O)COC(=O)C1CCCC1
inactive: dose: 89.0 mg/kg/injection, schedule: Q01DX Z (sc), vehicle: distilled water + alcohol 111 % of control | dose: 89.0 mg/kg/injection, schedule: Q01DX Z (sc), vehicle: steriod suspending solution 104 % of control | dose: 130.0 mg/kg/injection, schedule: Q01DX Z (sc), vehicle: steriod suspending solution 98 % of control | dose: 133.0 mg/kg/injection, schedule: Q01DX Z (sc), vehicle: distilled water + alcohol 96 % of control | dose: 200.0 mg/kg/injection, schedule: Q01DX Z (sc), vehicle: distilled water + alcohol 96 % of control | dose: 200.0 mg/kg/injection, schedule: Q01DX Z (sc), vehicle: steriod suspending solution 112 % of control | dose: 300.0 mg/kg/injection, schedule: Q01DX Z (sc), vehicle: distilled water + alcohol 108 % of control | dose: 300.0 mg/kg/injection, schedule: Q01DX Z (sc), vehicle: steriod suspending solution 93 % of control

Cc1ccc(S(=O)(=O)N/N=C2/C(=N/NS(=O)(=O)c3ccc(C)cc3)c3cccc4cccc2c34)cc1
inactive: dose: 75.0 mg/kg/injection, schedule: Q01DX001 (ip), vehicle: carboxymethylcellulose (CMC) 91 % of control | dose: 150.0 mg/kg/injection, schedule: Q01DX001 (ip), vehicle: carboxymethylcellulose (CMC) 91 % of control | dose: 300.0 mg/kg/injection, schedule: Q01DX001 (ip), vehicle: carboxymethylcellulose (CMC) 88 % of control

C[C-]=O.C[C-]=O.[Br][Pd][Br]
inactive: [4] 97 % of control | [5] 100 % of control | [6] 107 % of control

CCN(CC)CCOC(=O)Nc1ccc(Cl)cc1
inactive: [13] 93 % of control | [14] 98 % of control | [15] 93 % of control | dose: 200.0 mg/kg/injection, schedule: Q04DX003 (ip), vehicle: saline 98 % of control | [16] 98 % of control

O=S(=O)(O)c1cccc2nsnc12
inactive: [13] 107 % of control | [15] 109 % of control

O=C(CCl)C1C(O)=[N+](c2ccccc2)C2C=CC=CN12 (configuration not stated)
inactive: dose: 25.0 mg/kg/injection, schedule: Q01DX009 (ip), vehicle: saline 92 % of control | dose: 25.0 mg/kg/injection, schedule: Q04DX003 (ip), vehicle: saline 92 % of control | dose: 50.0 mg/kg/injection, schedule: Q01DX009 (ip), vehicle: saline 89 % of control | dose: 50.0 mg/kg/injection, schedule: Q04DX003 (ip), vehicle: saline 102 % of control | dose: 100.0 mg/kg/injection, schedule: Q01DX001 (ip), vehicle: saline 105 % of control | dose: 100.0 mg/kg/injection, schedule: Q01DX009 (ip), vehicle: saline 87 % of control | [14] 95 % of control | dose: 150.0 mg/kg/injection, schedule: Q01DX009 (ip), vehicle: saline 95 % of control | dose: 225.0 mg/kg/injection, schedule: Q01DX009 (ip), vehicle: saline 95 % of control | dose: 335.0 mg/kg/injection, schedule: Q01DX009 (ip), vehicle: saline 95 % of control

O=C1OC(c2cccc(Cl)c2)=N/C1=C\c1cc(Br)cc(Br)c1O
inactive: [11] 92 % of control | [12] 100 % of control | dose: 400.0 mg/kg/injection, schedule: Q04DX002 (ip), vehicle: Klucel (hydroxypropylcellulose) (HPC) 89 % of control

O=C(N/N=C/c1ccc2c(c1)CCC2)c1cccs1
inactive: [7] 97 % of control | [8] 103 % of control | [10] 107 % of control

CCC#CC(=O)OCCCCC
inactive: dose: 100.0 mg/kg/injection, schedule: Q04DX002 (ip), vehicle: saline 105 % of control | dose: 200.0 mg/kg/injection, schedule: Q04DX002 (ip), vehicle: saline 102 % of control | dose: 400.0 mg/kg/injection, schedule: Q04DX002 (ip), vehicle: saline 108 % of control

N#CCCC1=C(O)CCCC1=O
inactive: dose: 50.0 mg/kg/injection, schedule: Q01DX009 (ip), vehicle: saline with Tween-80 93 % of control | dose: 100.0 mg/kg/injection, schedule: Q01DX009 (ip), vehicle: saline with Tween-80 93 % of control | dose: 200.0 mg/kg/injection, schedule: Q01DX009 (ip), vehicle: saline with Tween-80 97 % of control

[C-]#[N+]C(C)(C)CC(C)(C)C
inactive: dose: 18.75 mg/kg/injection, schedule: Q04DX003 (ip), vehicle: acetone 103 % of control | dose: 33.0 mg/kg/injection, schedule: Q01DX001 (ip), vehicle: Klucel (hydroxypropylcellulose) (HPC) 110 % of control | dose: 33.0 mg/kg/injection, schedule: Q01DX001 (ip), vehicle: saline 104 % of control | dose: 37.5 mg/kg/injection, schedule: Q04DX003 (ip), vehicle: acetone 109 % of control | [1] 105 % of control | dose: 50.0 mg/kg/injection, schedule: Q01DX001 (ip), vehicle: saline 106 % of control | dose: 75.0 mg/kg/injection, schedule: Q01DX001 (ip), vehicle: Klucel (hydroxypropylcellulose) (HPC) 96 % of control | dose: 75.0 mg/kg/injection, schedule: Q01DX001 (ip), vehicle: saline 104 % of control | dose: 75.0 mg/kg/injection, schedule: Q04DX003 (ip), vehicle: acetone 107 % of control | dose: 110.0 mg/kg/injection, schedule: Q04DX003 (ip), vehicle: saline 94 % of control | dose: 170.0 mg/kg/injection, schedule: Q04DX003 (ip), vehicle: saline 106 % of control

CC(=O)OCC1OC(OC(C)=O)C(O)C(OC(C)=O)C1OC(C)=O (configuration not stated)
inactive: [2] 113 % of control | [3] 102 % of control | [9] 117 % of control

CC1(C)CS(=O)(=O)CC(C)(C)C(=O)C1=O
inactive: [2] 108 % of control

CSc1ccc(C)cc1C
inactive: [13] 105 % of control | [15] 103 % of control | [16] 105 % of control
